From patent US20250052744A1, “Dyes and Uses Thereof” (The University of Liverpool, priority 2021, published 2025)

Key:
Experiment in all cases: Qualitative dye staining on agarose pads (EVOS M7000)
Format in all cases: cell-based
Design in all cases: key to Relative fluorescent intensity: Very high: If the cells looked twice as big in the fluorescent channel, it was marked as having “very high” relative fluorescent intensity; High: if the cells looked bigger in the fluorescent channel, it was marked as having “high” relative fluorescent intensity; Medium: If the cells looked almost the same size in the fluorescent channel and the bright field, it was marked as having “medium” relative fluorescent intensity; Low: If the cells looked smaller in the fluorescent channel as compared to the brightfield but still the whole cell was visible, it was marked as having “low” relative fluorescent intensity; Negligible: If only a few traces of a cell was visible in the fluorescent channel, it was marked as having “negligible” relative fluorescent intensity
[1] = test system: Proteus; details: Table 6 thresholds, DiSC3(5) 3 μM, SYBR Green I 10×, SYTO 13 3 μM, FM4-64 15 μM
Procedure: (§1) An overnight culture was prepared by inoculating a bacterial colony in approximately 5 ml of Urine and incubating the culture in an orbital shaker at 37° C.
(§2) The following media and materials were utilised: Cation-adjusted Mueller Hinton broth (MHB); Phosphate Buffered Saline (PBS); Membrane staining dye—FM4-64 (1.5 mM); Live cell staining dye—DiSC3(5) (1 mM); DNA staining dye—SYBR Green (1000×); DNA staining dye—SYTO 13 (0.5 mM); Ultrapure Agarose; Parafilm; Glass slides and coverslips; Scalpel; and EVOS M7000 fluorescent microscope.
(§3) A pre-cut parafilm or a coverslip was used as a guide and 22 mm×22 mm squares cut from parafilm. A square was cut out of the centre of the parafilm (approximately 10 mm×10 mm). The centre of the cut-out was discarded. Two parafilm gaskets were placed onto a cleaned glass slide. The glass slide was then placed on a dry bath set to 56° C. so that the parafilm adhered to the glass slide. The glass slide was then kept on the dry bath. Using a microwave, ultrapure agarose was dissolved in PBS at a concentration of 1.2%. The agarose solution was kept on a dry bath set at 56° C. 60 μl of the agarose solution was pipetted in the centre of the parafilm gaskets. A coverslip was then placed over the gaskets without applying pressure on the coverslip. The slide was then placed on a cool surface and left to solidify for 1-2 minutes. The coverslips were then gently lifted off the agarose pads.
(§4) In a first Eppendorf, 15 μl of FM4-64 and 6 μl of SYTO 13 was added and in a second Eppendorf 10 μl of SYBR Green and 3 μl of DiSC3(5) was added. Depending on the bacterial growth in urine, an appropriate concentration of the bacterial culture was placed in the two Eppendorfs (final bacterial concentration 10^6 CFU/ml). MHB was added so as to achieve a final volume of 1 ml. Final concentrations of the dyes in the sample was as follows: DiSC3(5): 3 μM; SYBR Green I: 10× (originally supplied as 10,000×); SYTO 13: 3 μM; and FM4-64: 15 μM
(§5) 4 μl of the contents of each Eppendorf were deposited on one agarose pad and the cells distributed across the agar surface by tilting the slide. The slide was left to dry for approximately 1 minute. A coverslip was then placed on top of the agarose pad. The slide was placed inside the microscope and incubated at 37° C. for 10 minutes. Using different light filters for each dye, an image of each pad at 40× magnification on an EVOS M7000 fluorescent microscope was captured. Eight images for each agarose pad was recorded (i.e. 8 each for brightfield and 2 fluorescent channels). For each agarose pad, 24 images were recorded. This corresponded to 48 images in total for each bacterial strain (2 agarose pads per strain). Table A below was used to take the images using the correct fluorescent channel and intensity (for imagining on any other instrument, the LED intensity will need to be normalised against the EVOS M7000).
(§6) To qualitatively calculate the relative fluorescent intensities, cell size was compared between brightfield and the fluorescent channel for a given fluorescent dye. If the cells are very fluorescent, they will appear bigger in the fluorescent channel as compared to the bright field. For our qualitative measurements, if the cells looked bigger in the fluorescent channel, it was marked as having “high” relative fluorescent intensity. If the cells looked twice as big in the fluorescent channel, it was marked as having “very high” relative fluorescent intensity. If the cells looked almost the same size in the fluorescent channel and the bright field, it was marked as having “medium” relative fluorescent intensity. If the cells looked smaller in the fluorescent channel as compared to the brightfield but still the whole cell was visible, it was marked as having “low” relative fluorescent intensity. If only a few traces of a cell was visible in the fluorescent channel, it was marked as having “negligible” relative fluorescent intensity.

[2] = test system: Klebsiella pneumoniae; details: DiSC3(5) 3 μM, SYBR Green I 10×, SYTO 13 3 μM, FM4-64 15 μM
Procedure: as §1, §2, §3, §4, §5, §6

[3] = test system: Staphylococcus aureus; details: DiSC3(5) 3 μM, SYBR Green I 10×, SYTO 13 3 μM, FM4-64 15 μM
Procedure: as §1, §2, §3, §4, §5, §6

[4] = Table 7 commercial strain Klebsiella pneumoniae NCTC 9633
[5] = Table 7 commercial strain Klebsiella pneumoniae NCTC 14335
[6] = Table 8 sample Klebsiella pneumoniae (094)
[7] = Table 8 sample Klebsiella pneumoniae (095)
[8] = Table 6 thresholds, Staphylococcus aureus
[9] = Table 7 commercial strain S. Aureus NCTC 9369
[10] = Table 7 commercial strain S. aureus NCTC 8532
[11] = Table 8 sample Staphylococcus aureus (041)
[12] = Table 8 sample Staphylococcus aureus (042)
[13] = Table 8 sample Staphylococcus aureus (043)

| Compound | Percentage of cells stained [1] | Relative fluorescent intensity [1] | Percentage of cells stained [2, 4] | Relative fluorescent intensity [2, 4] | Percentage of cells stained [2, 5] | Relative fluorescent intensity [2, 5] | Percentage of cells stained [2, 6] | Relative fluorescent intensity [2, 6] | Percentage of cells stained [2, 7] | Relative fluorescent intensity [2, 7] | Percentage of cells stained [3, 8] | Relative fluorescent intensity [3, 8] | Percentage of cells stained [3, 9] | Relative fluorescent intensity [3, 9] | Percentage of cells stained [3, 10] | Relative fluorescent intensity [3, 10] | Percentage of cells stained [3, 11] | Relative fluorescent intensity [3, 11] | Percentage of cells stained [3, 12] | Relative fluorescent intensity [3, 12] | other results |
| --- | --- | --- | --- | --- | --- | --- | --- | --- | --- | --- | --- | --- | --- | --- | --- | --- | --- | --- | --- | --- | --- |
| CCCN(CCCN(C)C)c1cc(/C=C2/Sc3ccccc3N2C)c2ccccc2[n+]1-c1ccccc1 [SYBR Green I, N′,N′-dimethyl-N-[4-[(E)-(3-methyl-1,3-benzothiazol-2-ylidene)methyl]-1-phenylquinolin-1-ium-2-yl]-N-propylpropane-1,3-diamine] | Half | Low | Half | Low | Almost all | Low | Half | Low | Almost all | Low | Almost all | high | Almost all | High | Almost all | High | Almost all | High | Almost all | High | Relative fluorescent intensity ([3]; Table 6 thresholds, Staphylococcus aureus, listed as SYBR Green): High; Percentage of cells stained [3, 13]: Almost all; Relative fluorescent intensity [3, 13]: High |
| CCCN1C(=CC=CC=Cc2sc3ccccc3[n+]2CCC)Sc2ccccc21.[I-] [DiSC3(5), 3,3′-Dipropylthiadicarbocyanine Iodide] | Half | Low-Medium | Half | Low | Almost all | Low | Half | Low | Almost all | Low | Almost all | high and High | Almost all | High | Almost all | High | Almost all | High | Almost all | High | Percentage of cells stained [3, 13]: Almost all; Relative fluorescent intensity [3, 13]: High |
| CCN(CC)c1ccc(C=CC=CC=Cc2cc[n+](CCC[N+](CC)(CC)CC)cc2)cc1.[Br-].[Br-] [FM 4-64, N-(3-Triethylammoniumpropyl)-4-(6-(4-(Diethylamino) Phenyl) Hexatrienyl) Pyridinium Dibromide] | Few | no staining or negligible | Few | Low | Half | Low | Few | Low | Few | Low | Almost all | Medium-high | Almost all | High | Almost all | Medium | Almost all | High | Almost all | Medium | Relative fluorescent intensity ([1]; listed as FM4-64): Negligible; Percentage of cells stained [3, 13]: Almost all; Relative fluorescent intensity [3, 13]: Medium |
